{"source": "paper PMC11023938", "about": "(Nature, 2024)", "key": {"[1]": {"test_system": "bone marrow-derived macrophages", "test": "Macrophage efferocytosis of neutrophils", "assay_type": "cell-based, mouse", "details": "macrophage treatment with TSP-1 1, 10 or 100 nM"}, "[2]": {"test_system": "Nav1.8^cre/Rosa26^DTA mice", "test": "Flow cytometry of injured skin and muscle, nociceptor-ablated mice", "assay_type": "in vivo, mouse", "details": "TSP-1 total 10 μg", "experimental": "Skin wounds were collected using an 8-mm biopsy punch, and muscle defects were dissected to isolate the quadriceps. Samples were minced with scissors and subjected to two serial digestions with collagenase XI (1 mg ml^−1) at 37 °C (two times 20 min for skin, two times 15 min for muscle). After the first digestion, the supernatant was collected and mixed with neutralization buffer (DMEM/F12 with 10% FBS and 5 mM EDTA). The first collection was kept on ice and fresh collagenase XI was added to the undigested tissue for the second digestion. Digestion mixtures were passed through a 70-μm cell strainer and stained with LIVE/DEAD Fixable Aqua dye (Thermo Fisher Scientific, 1:400 dilution in PBS) for 20 min on ice. Cells were incubated with TruStain FcX anti-CD16/32 (10 μg ml^−1; clone 93, BioLegend) diluted in staining buffer (5% FBS and 2 mM EDTA in PBS) for 20 min and subsequently incubated with primary antibodies in staining buffer for a further 30 min on ice. The following anti-mouse antibodies from BioLegend were used: FITC anti-CD11b (clone M1/70, 6.6 μg ml^−1) or BV711 anti-CD11b (clone M1/70, 2 μg ml^−1); PE anti-F4/80 (clone BM8, 4 μg ml^−1); BV421 anti-Ly6G (clone 1A8, 2 μg ml^−1); BV711 anti-Ly6C (clone HK1.4, 1 μg ml^−1) or FITC anti-Ly6C (clone HK1.4, 5 μg ml^−1); PE-Cyanine7 anti-CD206 (clone C068C2, 2.6 μg ml^−1); APC anti-CD206 (clone C068C2, 2 μg ml^−^1); PE-Cyanine7 anti-CD3 (clone 17A2, 4 μg ml^−1); BV711 anti-CD3 (clone 17A2, 4 μg ml^−1);APC anti-CD4 (clone GK1.5, 2 μg ml^−1); BV421 anti-CD8 (clone 53-6.7, 2 μg ml^−1); PE anti-TCR β (clone H57-597, 2 μg ml^−1); APC/Fire 750 anti-TCR γ/δ (clone GL3, 2 μg ml^−1); PE-Cyanine anti-CD11c (clone N418, 2 μg ml^−1); APC/Fire 750 anti-MHC Class II (clone M5/114.15.2, 2 μg ml^−1). Cells were washed once with a large volume of staining buffer before analysis with BD LSR Fortessa X-20 and FlowJo software (BD Biosciences)."}, "[3]": {"test_system": "bone marrow-isolated neutrophils", "test": "Neutrophil cell death", "assay_type": "cell-based, mouse", "details": "TSP-1 1, 10 or 100 nM, in the presence of inflammatory cytokines; dose-dependent"}, "[4]": {"test_system": "bone marrow-derived neutrophils", "test": "Neutrophil transwell migration", "assay_type": "cell-based, mouse", "details": "TSP-1 1, 10 or 100 nM"}, "[5]": {"test_system": "bone marrow-derived macrophages", "test": "Macrophage cell death", "assay_type": "cell-based, mouse", "details": "TSP-1 1, 10 or 100 nM, in the presence of inflammatory cytokines; dose-dependent"}, "[6]": {"test_system": "bone marrow-derived macrophages", "test": "Macrophage transwell migration", "assay_type": "cell-based, mouse", "details": "TSP-1 1, 10 or 100 nM"}, "[7]": {"details": "skin wound borders D1 and D3 or muscle defect via fibrin hydrogel, day 3 post-injury"}}, "data": [{"substance": "thrombospondin-1 [TSP-1]", "values": [{"measurement": "efferocytosis of neutrophils by macrophages", "setting": "[1]", "value": "greatly enhanced"}, {"measurement": "CD206 expression in injured tissue", "setting": "[2]; skin and muscle injuries, day 14 post-injury", "value": "increase"}, {"measurement": "number of inflammatory monocytes/macrophages (Ly6C^hi) in injured tissue", "setting": "[2]; [7]", "value": "reduced numbers"}, {"measurement": "number of monocytes/macrophages in injured tissue", "setting": "[2]; [7]", "value": "reduced numbers"}, {"measurement": "number of neutrophils in injured tissue", "setting": "[2]; [7]", "value": "reduced numbers"}, {"measurement": "neutrophil death", "setting": "[3]", "value": "accelerated death"}, {"measurement": "neutrophil migration towards CXCL1", "setting": "[4]", "value": "inhibition of migration"}, {"measurement": "macrophage death", "setting": "[5]", "value": "accelerated death"}, {"measurement": "macrophage migration towards CCL2", "setting": "[6]", "value": "inhibition of migration"}]}]}
